Here are results for 3 molecules from patent publication US20020032183A1, “Use of (di-substituted-phenyl)-pyrimidinyl-imidazole derivatives as JNK-inhibitors” (priority 2000, published 2002).

Structures can show the parent of a compound that is named as a salt.

One assay has as its target T1, JNK3α1 (Homo sapiens, UniProt P53779).
T1 construct: Truncated JNK3α1 (amino acids 39-422) was expressed in E. coli; made in house; host or cells: E. coli
Briefly: Biochemical determination of inhibition of JNK3α1. The conditions noted are these: truncated JNK3α1, 1 μM ATP, 0.5 μM GST-ATF2, 30° C., 30 min. As for the experimental part:
Activation reactions were incubated at 30° C. for 2 h.
Enzyme inhibition studies were performed at 30° C. for 30 min with 0.5 μM GST-ATF2, 1 μM ATP, 1 nM activated JNK3α1 and compound ranging from 30 pM to 100 μM. Reactions were carried out in 100 μL volumes containing the final concentrations of the following: 25 mM HEPES (Sigma) pH 7.4; 10 mM MgCl2 (Sigma); 2 mM DTT (Sigma); 20 mM β-glycerophosphate (Sigma); 0.1 mM Na3VO4 (Sigma); 2 μCi [γ-^33P]ATP (2000 Ci/mmol; 1 Ci=37 GBq) (Amersham Pharmacia Biotech, Piscataway, N.J.). Reactions were stopped with 100 μL 100 mM EDTA/15 mM sodium pyrophosphate. Immobilon™-P 96-well plates (Millipore MAIPNOB™ 10, available from the Millipore Corp., Bedford, Mass.) were pretreated with 100 μL methanol, followed by 100 μL 15 mM sodium pyrophosphate. Fifty μL of the stopped reaction was spotted in triplicate on the Immobilon™-P 96-well plate. The samples were vacuum-filtered and washed three times each with 100 μL 75 mM H3PO4 to remove unincorporated [γ-^33P]ATP. After the third H3PO4 wash and a final filtration step to remove H3PO4, 50 μL of Microscint™-20 (Packard BioScience Ltd., Pangbourne, Berkshire, U.K.) was added to each well and samples were analyzed on a Packard Topcount™ liquid scintillation counter. IC50 values were determined by fitting the data to the equation for a four parameter logistic.

For assay [1], the system named is Rat superior cervical ganglion neurons. Briefly: Sympathetic neuronal survival assay (no NGF exposure; GAP-43 ELISA and cell counts). It is filed as cell-based. The following applies: NGF 1 ng/ml. The method, then: Activation of c-jun-N-terminal kinase (JNK) has been implicated in apoptosis in sympathetic neurons. An inhibitor of JNK, Example 2, was tested for neuroprotective effects in two models of sympathetic neuronal cell death.
In the first model, ganglia were dissociated and plated directly into culture plates in the presence of compound for 48 hours, then fixed and survival assayed using an ELISA for GAP-43. This model will hereafter be referred to as the ‘survival assay’.
Ganglia were enzymatically dissociated using 0.25% trypsin for 45 minutes. The trypsin was then inhibited using Dulbecco's MEM (DMEM) supplemented with 10% fetal bovine serum, and the cells mechanically triturated using a pipette tip to form a single cell suspension. Neurons in the suspension were counted using a haemocytometer, and plated at a density of 3000-5000 neurons per well in poly-D-lysine and laminin coated 96 well tissue culture clusters in DMEM supplemented with B27 serum substitute. Cultures were then incubated at 37° C./5% CO2. One hour following plating, cultures were either treated with NGF 25 ng/ml or with L-790,984 at a range of concentrations for the NGF deprivation and survival assays respectively.
Cultures for the NGF deprivation assay were returned to the incubator for 4 days. Following this, the medium was aspirated, plates washed once with DMEM/B27, and the cultures treated with Example 2 at concentrations ranging from 1 nM to 10 μM, together with an anti-NGF blocking antibody at 250 ng/ml. Cultures were then returned to the incubator for a further 72 hours prior to fixation and survival quantification. Cultures treated with Example 2 immediately for the survival assay were returned to the incubator for 48 hours; cultures were then fixed and survival quantified using the GAP-43 ELISA.
Cultures were fixed by the addition of an equal volume 4% paraformaldehyde to each well for 10 minutes; this was then aspirated, and replaced by a further volume of 4% paraformaldehyde for a further 20 minutes at room temperature. Plates were then washed three times with PBS/0.3% TX100, and non-specific binding sites blocked by the addition of 5% normal horse serum (NHS) in PBS/0.3% TX100. Plates were incubated at room temperature for one hour, then the blocking serum was aspirated without washing and replaced with primary antibody. The primary antibody used was a mouse monoclonal antibody raised against Growth Associated Protein 43 (Sigma), prepared at a dilution of 1:500 in PBS/0.3% TX100/5% NHS. Primary antibody was added to all sample wells, with four control wells returned to blocking serum to act as minus primary control. Plates were then refrigerated overnight at 4° C. The next day, plates were washed three times with PBS/0.3 TX100 and secondary antibody added. The secondary antibody used was peroxidase conjugated sheep anti-mouse IgG, and was added at a dilution of 1:1000 in PBS/0.3% TX100/5% NHS. Plates were incubated for 1 hour at room temperature, then washed three times with PBS/0.3% TX100, and K-Blue insoluble peroxidase substrate added for 30 minutes at room temperature. The optical density of the plates was then read at 650 nm, and the survival of neurons calculated and expressed as percentage of the control response.
Cell counts were performed on one sample plate for each model of sympathetic neuronal cell death, by the addition of a tertiary antibody to the plate, followed by avidin-biotin complex and an insoluble peroxidase substrate. Following quantification of optical density, plates were washed three times in PBS/0.3% TX100, and non-specific sites blocked using PBS/0.3% TX100/5% normal rabbit serum (“NRS”). Plates were incubated for one hour at room temperature, then the blocking serum was aspirated and replaced with biotinylated rabbit anti-sheep IgG at a dilution of 1:500 in PBS/0.3% TX10O/5% NRS. […]

T1 sequence (P53779 39-422 isoform P53779-2): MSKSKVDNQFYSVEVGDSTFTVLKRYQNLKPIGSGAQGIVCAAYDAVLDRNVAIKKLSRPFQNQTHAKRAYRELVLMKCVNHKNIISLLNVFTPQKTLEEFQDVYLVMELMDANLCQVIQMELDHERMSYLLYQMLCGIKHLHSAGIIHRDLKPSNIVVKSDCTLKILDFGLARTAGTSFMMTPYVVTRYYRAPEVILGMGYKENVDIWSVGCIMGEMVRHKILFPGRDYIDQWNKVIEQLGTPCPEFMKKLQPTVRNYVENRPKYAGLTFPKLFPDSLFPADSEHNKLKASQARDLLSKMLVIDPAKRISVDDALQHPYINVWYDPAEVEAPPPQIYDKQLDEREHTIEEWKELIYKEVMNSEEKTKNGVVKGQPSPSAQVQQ

Consider `CCCn1c(C2CCNCC2)nc(-c2ccc(Cl)c(Cl)c2)c1-c1ccnc(NC2CC2)n1` [Example 1, Cyclopropyl-{4-[5-(3,4-dichlorophenyl)-2-piperidin-4-yl-3-propyl-3H-imidazol-4-yl]-pyrimidin-2-yl}amine], for which, on JNK3α1, inhibition was half-maximal at 8 nM (IC50). As for `Clc1ccc(-c2nc(C3CCNCC3)n(CC3CC3)c2-c2ccnc(NC3CC3)n2)cc1Cl` [Example 7, Cyclopropyl-{4-[3-cyclopropylmethyl-5-(3,4-dichlorophenyl)-2-piperidin-4-yl-3H-imidazol-4-yl]-pyrimidin-2-yl}amine bis trifluoroacetic acid salt], the concentration for half-maximal inhibition (IC50) (commonly the concentration that inhibits the measured activity by half) at JNK3α1 was 4 nM.

B1: NGF: NGF at 1 ng/ml, comparison group in the sympathetic neuronal survival assay; these neurons are NGF dependent (protein, UniProt P01139 122-241, looked up)
Beta-nerve growth factor: SSTHPVFHMGEFSVCDSVSVWVGDKTTATDIKGKEVTVLAEVNINNSVFRQYFFETKCRASNPVESGCRGIDSKHWNSYCTTTHTFVKALTTDEKQAAWRFIRIDTACVCVLSRKATRRG
Regarding B1, the “Survival, ELISA Data Mean” value in assay [1] (GAP-43 ELISA) is listed as 618.55. The “Survival, Cell Counts Mean” value in assay [1] (immunostained neurons per well) is 587.00.
